Several values for one entry are separate records, joined by “and”; a condition that tells them apart may be missing. Equal entries are not always repeated.
Key:
Format in all cases: in vivo
[1] = tested on: Tetranychus urticae (two spotted spider mite); assay: Tetranychus urticae contact/feeding activity on bean plants, adult mortality
Description: (§1) The action to be expected E for a given active ingredient combination obeys the so-called COLBY formula and can be calculated as follows (COLBY, S.R. “Calculating synergistic and antagonistic responses of herbicide combination”. Weeds, Vol. 15, pages 20-22; 1967):
(§2) ppm=milligrams of active ingredient (=a.i.) per liter of spray mixture X=% action by active ingredient A) using p ppm of active ingredient Y=% action by active ingredient B) using q ppm of active ingredient.
(§3) According to COLBY, the expected (additive) action of active ingredients A)+B) using p+q ppm of active ingredient is
(§4) If the action actually observed (O) is greater than the expected action (E), then the action of the combination is super-additive, i.e. there is a synergistic effect. In mathematical terms the synergism factor SF corresponds to O/E. In the agricultural practice an SF of ≧1.2 indicates significant improvement over the purely complementary addition of activities (expected activity), while an SF of ≦0.9 in the practical application routine signals a loss of activity compared to the expected activity.
Tetranychus Urticae (Two Spotted Spider Mite)
(Contact/Feeding Activity)
Bean plants are infested with mite populations of mixed ages. 1 day after infestation, plants are treated in a spray chamber with diluted test solutions. 1 and 8 days later, samples are checked for adult mortality. 2 replicates per treatment were evaluated.

[2] = tested on: Spodoptera littoralis (Egyptian cotton leaf worm); assay: Spodoptera littoralis larvicide L1, feeding/contact, cotton leaf discs; settings: single compound
Description: as §1, §2, §3, §4
Spodoptera Littoralis (Egyptian Cotton Leaf Worm)
(Larvicide L1, Feeding/Contact)
Cotton leaf discs are placed on agar in Petri dishes and sprayed with test solutions in an application chamber. After drying, the leaf discs are infested with 10 L1 larvae. The samples are checked for mortality 5 days after treatment. 3 replicates per treatment were evaluated. (1 PPM=1 mg l^−1)

[3] = tested on: Heliothis virescens (tobacco budworm); assay: Heliothis virescens ovo-larvicide, feeding/contact, eggs on filter paper in Petri dishes; settings: for activity on eggs: egg mortality, 7 days incubation; for AVERAGE DEAD IN % (LARVAE): single compound, 7 days
Description: as §1, §2, §3, §4
Heliothis Virescens (Tobacco Budworm):
(Ovo-Larvicide, Feeding/Contact)
30-35 fresh eggs (0-24 h old), deposited on filter paper, are placed in Petri dishes on top of a layer of artificial diet and 0.8 ml of diluted test solutions are pipetted onto them. After an incubation period of 7 days, samples are checked for egg and larval mortality. 3 replicates per treatment were evaluated.

[4] = tested on: Heliothis virescens (tobacco budworm); assay: Heliothis virescens eggs in 24-well microtiter plate on artificial diet, larval mortality
Description: as §1, §2, §3, §4
Heliothis Virescens (Tobacco Budworm)
Eggs (0-24 h old) are placed in 24-well microtiter plate on artificial diet and treated with test solutions (DMSO) by pipetting. After an incubation period of 4 days, samples are checked for larval mortality.

[5] = tested on: Tetranychus urticae (two-spotted spider mite); assay: Tetranychus urticae bean leaf discs in 24-well microtiter plates, mixed population mortality; settings: 8 days
Description: as §1, §2, §3, §4
Tetranychus Urticae (Two-Spotted Spider Mite)
Bean leaf discs on agar in 24-well microtiter plates are sprayed with test solutions (DMSO). After drying, the leaf discs are infested with mite populations of mixed ages. 8 days later, discs are checked for mixed population mortality.

Substance: abamectin
- AVERAGE DEAD IN % AFTER 8 DAYS ([1]; 0.0015 ppm alone): 25%
- AVERAGE DEAD IN % AFTER 8 DAYS ([1]; 0.003 ppm alone): 20%
- AVERAGE DEAD IN % AFTER 8 DAYS ([1]; 0.006 ppm alone): 25%
- AVERAGE DEAD IN % AFTER 1 DAY ([1]; Abamectin alone 0.0015 ppm AI): 0%
- AVERAGE DEAD IN % AFTER 1 DAY ([1]; Abamectin alone 0.003 ppm AI): 0%
- AVERAGE DEAD IN % AFTER 1 DAY ([1]; Abamectin alone 0.006 ppm AI): 0%
- AVERAGE DEAD IN % AFTER 5 DAYS ([2]; 0.4 PPM AI): 10% and 7%
- AVERAGE DEAD IN % AFTER 5 DAYS ([2]; 0.8 PPM AI): 13% and 10%
- AVERAGE DEAD IN % AFTER 5 DAYS ([2]; 1.6 PPM AI): 40% and 20%
- activity on eggs [3]: inactive
- AVERAGE DEAD IN % (LARVAE) ([3]; 0.025 ppm AI): 3%
- AVERAGE DEAD IN % (LARVAE) ([3]; 0.05 ppm AI): 37%
- AVERAGE DEAD IN % (LARVAE) ([3]; 0.1 ppm AI): 53%
- AVERAGE DEAD IN % ([4]; single compound at 0.2 ppm AI): 0%
- AVERAGE DEAD IN % ([4]; single compound at 0.4 ppm AI): 45%
- AVERAGE DEAD IN % ([4]; single compound at 0.8 ppm AI): 68%
- AVERAGE DEAD IN % ([4]; single compound at 1.6 ppm AI): 78%
- AVERAGE DEAD IN % ([4]; single compound at 3.2 ppm AI): 100%
- AVERAGE DEAD IN % ([4]; single compound at 6.4 ppm AI): 100%
- AVERAGE DEAD IN % ([5]; 0.0002 ppm alone): 0%
- AVERAGE DEAD IN % ([5]; 0.0004 ppm alone): 0%
- AVERAGE DEAD IN % ([5]; 0.0008 ppm alone): 0%
- AVERAGE DEAD IN % ([5]; 0.0015 ppm alone): 0%
- AVERAGE DEAD IN % ([5]; 0.003 ppm alone): 0%
- AVERAGE DEAD IN % ([5]; 0.006 ppm alone): 0%
- AVERAGE DEAD IN % ([5]; 0.0125 ppm alone): 0%
- AVERAGE DEAD IN % ([5]; 0.025 ppm alone): 0%
- AVERAGE DEAD IN % ([5]; 0.05 ppm alone): 85%
- AVERAGE DEAD IN % ([5]; 0.1 ppm alone): 85%
- AVERAGE DEAD IN % ([5]; Abamectin alone, 0.0002 ppm, Table 120): 0%
- AVERAGE DEAD IN % ([5]; Abamectin alone, 0.0004 ppm, Table 120): 0%
- AVERAGE DEAD IN % ([5]; Abamectin alone, 0.0008 ppm, Table 120): 0%
- AVERAGE DEAD IN % ([5]; Abamectin alone, 0.0015 ppm, Table 120): 0%
- AVERAGE DEAD IN % ([5]; Abamectin alone, 0.003 ppm, Table 120): 0%
- AVERAGE DEAD IN % ([5]; Abamectin alone, 0.006 ppm, Table 120): 0%
- AVERAGE DEAD IN % ([5]; Abamectin alone, 0.0125 ppm, Table 120): 0%
- AVERAGE DEAD IN % ([5]; Abamectin alone, 0.025 ppm, Table 120): 0%
- AVERAGE DEAD IN % ([5]; Abamectin alone, 0.05 ppm, Table 120): 70%
- AVERAGE DEAD IN % ([5]; Abamectin alone, 0.1 ppm, Table 120): 80%

Substance: emamectin benzoate
- AVERAGE DEAD IN % AFTER 8 DAYS ([1]; 0.0125 ppm alone): 5%
- AVERAGE DEAD IN % AFTER 8 DAYS ([1]; 0.025 ppm alone): 23%
- AVERAGE DEAD IN % AFTER 8 DAYS ([1]; 0.05 ppm alone): 38%
- AVERAGE DEAD IN % AFTER 1 DAY ([1]; Emamectin benzoate alone 0.0125 ppm AI): 0%
- AVERAGE DEAD IN % AFTER 1 DAY ([1]; Emamectin benzoate alone 0.025 ppm AI): 8%
- AVERAGE DEAD IN % AFTER 1 DAY ([1]; Emamectin benzoate alone 0.05 ppm AI): 0%
- AVERAGE DEAD IN % AFTER 5 DAYS ([2]; 0.003125 PPM AI): 20%
- AVERAGE DEAD IN % AFTER 5 DAYS ([2]; 0.00625 PPM AI): 23%
- AVERAGE DEAD IN % AFTER 5 DAYS ([2]; 0.0125 PPM AI): 30% and 27%
- activity on eggs [3]: inactive
- AVERAGE DEAD IN % (LARVAE) ([3]; 0.0015 ppm AI): 5%
- AVERAGE DEAD IN % (LARVAE) ([3]; 0.003 ppm AI): 5%
- AVERAGE DEAD IN % (LARVAE) ([3]; 0.006 ppm AI): 10%
- AVERAGE DEAD IN % ([4]; single compound at 0.00075 ppm AI): 0%
- AVERAGE DEAD IN % ([4]; single compound at 0.0015 ppm AI): 0%
- AVERAGE DEAD IN % ([4]; single compound at 0.003 ppm AI): 0%
- AVERAGE DEAD IN % ([4]; single compound at 0.006 ppm AI): 0%
- AVERAGE DEAD IN % ([4]; single compound at 0.012 ppm AI): 55%
- AVERAGE DEAD IN % ([4]; single compound at 0.024 ppm AI): 93%

Reference: US20130085064A1, “PESTICIDAL MIXTURES CONTAINING ISOXAZOLINE DERIVATIVES AND INSECTICIDE OR NEMATOICIDAL BIOLOGICAL AGENT” (priority 2010, published 2013)
